Assay results published in patent publication US20050234652A1, “Nuclear magnetic resonance-docking of compounds” (Triad Therapeutics, Inc., priority 2001, published 2005).

Biological target: T1, DHPR (Escherichia coli, UniProt P04036)
T1 construct: made in house; host or cells: E. coli BL21 (DE3) Gold
Assay: binding of ligands to DHPR (dissociation constants)
Set-up: species or system E. coli
Text: The resonance assignments for DHPR residues Thr80, Thr104 and Met17 were obtained as follows. Differential chemical shift perturbation was observed by comparing the spectra of MIT-DHPR bound to 2,6-pyridinedicarboxylate (PDC) and the spectra of MIT-DHPR bound to 4-Cl PDC. Distinct changes in chemical shift for only one of the methionine ^13C^ε/^1H^ε resonances was detected, which therefore identified the signals as being associated with M17 as shown in FIG. 1D. Both PDC and 4-Cl PDC bound to DHPR with micromolar dissociation constants, so that, at the concentrations used, the protein was saturated in both samples. Therefore, the resultant chemical shift differences originate solely from the small perturbation introduced by binding slightly different ligands. Similarly, resonance assignments were obtained for residues T104 and […] with differential chemical shifts comparing spectra obtained for complexes formed with NADH and 3-acetyl pyridine NADH.

T1 sequence (P04036 whole entry): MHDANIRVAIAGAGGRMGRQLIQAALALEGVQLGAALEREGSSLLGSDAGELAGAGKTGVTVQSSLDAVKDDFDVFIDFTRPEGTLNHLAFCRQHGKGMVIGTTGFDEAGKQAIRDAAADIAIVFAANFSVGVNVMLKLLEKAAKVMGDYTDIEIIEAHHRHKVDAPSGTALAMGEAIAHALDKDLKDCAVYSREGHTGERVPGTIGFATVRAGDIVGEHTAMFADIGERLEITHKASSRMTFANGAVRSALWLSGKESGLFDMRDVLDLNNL

SMILES: O=C(O)c1cccc(C(=O)O)n1 [PDC, 2,6-pyridinedicarboxylate]
- dissociation constants: micromolar

SMILES: O=C(O)c1cc(Cl)cc(C(=O)O)n1 [4-Cl PDC]
- dissociation constants: micromolar
